BindingDB's records for doi:10.1021/jm00403a014 (National Institute of Diabetes, Digestive and Kidney …, 1988)

Experiment: Binding affinity to sigma site of Phencyclidine receptor by displacement of [3H]-(+)-SKF- 10,047

SMILES: c1ccc(C2(N3CCCCC3)CCCCC2)cc1
- Ki: 530 nM
